According to ChEMBL document CHEMBL5291721, “A preclinical secondary pharmacology resource illuminates target-adverse drug reaction associations of marketed drugs” (Nat Commun, 2023):

Legend:
[1] = biological target: T1, Alpha-2A adrenergic receptor (Homo sapiens, UniProt P08913)
T1 sequence (P08913 whole entry): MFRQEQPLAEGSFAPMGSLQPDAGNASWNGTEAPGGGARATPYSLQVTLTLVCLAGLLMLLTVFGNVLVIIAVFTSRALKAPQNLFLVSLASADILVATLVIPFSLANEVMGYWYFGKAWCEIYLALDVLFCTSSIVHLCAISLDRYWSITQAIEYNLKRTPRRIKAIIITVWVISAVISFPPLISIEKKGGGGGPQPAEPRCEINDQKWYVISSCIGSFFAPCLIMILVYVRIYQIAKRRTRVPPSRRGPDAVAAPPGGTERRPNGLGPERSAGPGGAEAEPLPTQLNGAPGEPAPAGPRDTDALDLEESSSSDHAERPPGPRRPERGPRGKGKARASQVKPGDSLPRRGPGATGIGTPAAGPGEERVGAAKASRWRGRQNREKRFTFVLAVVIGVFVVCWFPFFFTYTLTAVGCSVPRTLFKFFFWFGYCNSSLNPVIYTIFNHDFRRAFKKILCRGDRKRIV

[2] = biological target: Prostaglandin G/H synthase 1 (Homo sapiens, UniProt P23219); type: functional
Chain of Prostaglandin G/H synthase 1 (P23219 whole entry): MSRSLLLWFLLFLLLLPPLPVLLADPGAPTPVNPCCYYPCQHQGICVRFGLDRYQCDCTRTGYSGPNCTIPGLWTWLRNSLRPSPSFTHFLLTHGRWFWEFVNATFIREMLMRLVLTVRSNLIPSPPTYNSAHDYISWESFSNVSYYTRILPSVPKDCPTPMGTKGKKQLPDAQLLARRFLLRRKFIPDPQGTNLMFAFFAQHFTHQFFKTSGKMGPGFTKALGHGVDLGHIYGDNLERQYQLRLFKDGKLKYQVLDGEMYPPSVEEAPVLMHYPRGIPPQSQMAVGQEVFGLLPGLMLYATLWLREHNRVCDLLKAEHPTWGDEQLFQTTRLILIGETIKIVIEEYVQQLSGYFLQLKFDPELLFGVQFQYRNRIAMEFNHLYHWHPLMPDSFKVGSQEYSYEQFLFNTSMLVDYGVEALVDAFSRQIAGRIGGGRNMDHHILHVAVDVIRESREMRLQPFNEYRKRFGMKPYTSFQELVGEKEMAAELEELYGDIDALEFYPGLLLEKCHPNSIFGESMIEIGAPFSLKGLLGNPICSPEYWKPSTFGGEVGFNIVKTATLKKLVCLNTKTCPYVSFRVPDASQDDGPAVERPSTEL

Estrogen receptor = biological target: T2, Estrogen receptor (Homo sapiens, UniProt P03372)
T2 sequence (P03372 whole entry): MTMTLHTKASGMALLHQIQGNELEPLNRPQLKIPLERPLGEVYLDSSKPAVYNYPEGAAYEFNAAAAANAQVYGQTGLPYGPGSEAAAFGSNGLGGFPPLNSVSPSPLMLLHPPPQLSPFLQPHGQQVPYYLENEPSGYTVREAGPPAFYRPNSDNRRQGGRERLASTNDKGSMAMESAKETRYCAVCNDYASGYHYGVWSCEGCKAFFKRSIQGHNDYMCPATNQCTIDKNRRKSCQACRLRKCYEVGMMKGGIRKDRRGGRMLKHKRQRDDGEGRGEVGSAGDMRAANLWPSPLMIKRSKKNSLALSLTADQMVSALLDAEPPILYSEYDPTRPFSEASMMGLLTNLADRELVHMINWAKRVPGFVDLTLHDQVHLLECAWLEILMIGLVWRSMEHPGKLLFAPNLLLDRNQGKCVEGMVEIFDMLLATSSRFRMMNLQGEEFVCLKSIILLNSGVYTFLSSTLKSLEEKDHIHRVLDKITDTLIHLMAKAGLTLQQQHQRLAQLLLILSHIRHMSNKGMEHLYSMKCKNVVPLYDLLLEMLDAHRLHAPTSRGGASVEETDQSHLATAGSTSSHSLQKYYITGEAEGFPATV

Mu-type opioid receptor [3] = biological target: T3, Mu-type opioid receptor (Homo sapiens, UniProt P35372)
T3 sequence (P35372 whole entry): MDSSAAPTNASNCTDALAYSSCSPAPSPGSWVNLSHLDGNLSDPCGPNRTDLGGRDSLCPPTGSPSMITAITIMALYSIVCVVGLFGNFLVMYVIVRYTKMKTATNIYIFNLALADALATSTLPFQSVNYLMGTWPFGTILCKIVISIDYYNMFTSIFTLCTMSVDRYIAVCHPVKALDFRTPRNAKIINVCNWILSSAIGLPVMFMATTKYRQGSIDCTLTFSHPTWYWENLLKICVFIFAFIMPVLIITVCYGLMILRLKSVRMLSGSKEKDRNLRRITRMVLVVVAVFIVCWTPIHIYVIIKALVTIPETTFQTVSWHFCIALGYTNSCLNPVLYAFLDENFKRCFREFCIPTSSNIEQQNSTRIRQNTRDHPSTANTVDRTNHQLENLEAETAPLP

[4] = biological target: T4, Alpha-1A adrenergic receptor (Homo sapiens, UniProt P35348); type: functional, cell-based
T4 sequence (P35348 whole entry): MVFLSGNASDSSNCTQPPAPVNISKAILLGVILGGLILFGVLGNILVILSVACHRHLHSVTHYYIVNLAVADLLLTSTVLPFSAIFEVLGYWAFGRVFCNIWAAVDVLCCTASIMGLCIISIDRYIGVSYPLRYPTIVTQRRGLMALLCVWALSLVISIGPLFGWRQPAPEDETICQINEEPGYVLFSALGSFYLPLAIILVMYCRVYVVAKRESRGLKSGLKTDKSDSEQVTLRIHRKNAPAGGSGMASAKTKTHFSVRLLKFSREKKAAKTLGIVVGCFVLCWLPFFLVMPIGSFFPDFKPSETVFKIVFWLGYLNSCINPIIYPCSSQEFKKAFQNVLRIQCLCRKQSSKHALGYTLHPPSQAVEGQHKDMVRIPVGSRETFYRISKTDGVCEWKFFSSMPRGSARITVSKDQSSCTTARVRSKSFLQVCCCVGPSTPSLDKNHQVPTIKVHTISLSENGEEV

[5] = biological target: Glutamate receptor ionotropic, NMDA 1 (Rattus norvegicus, UniProt P35439)
[6] = biological target: Beta-2 adrenergic receptor (Homo sapiens, UniProt P07550)
Chain of Beta-2 adrenergic receptor (P07550 whole entry): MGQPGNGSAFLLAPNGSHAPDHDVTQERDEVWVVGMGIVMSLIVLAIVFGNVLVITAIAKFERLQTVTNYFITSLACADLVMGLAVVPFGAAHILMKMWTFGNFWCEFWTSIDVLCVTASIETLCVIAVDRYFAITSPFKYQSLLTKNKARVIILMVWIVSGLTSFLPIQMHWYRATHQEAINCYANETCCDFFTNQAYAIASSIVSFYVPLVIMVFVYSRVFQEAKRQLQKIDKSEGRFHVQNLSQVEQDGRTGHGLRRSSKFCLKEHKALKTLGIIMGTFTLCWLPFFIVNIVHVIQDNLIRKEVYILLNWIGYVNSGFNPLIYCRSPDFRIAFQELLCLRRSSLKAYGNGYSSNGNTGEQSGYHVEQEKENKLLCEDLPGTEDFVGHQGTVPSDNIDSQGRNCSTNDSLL

[7] = biological target: Kappa-type opioid receptor (Homo sapiens, UniProt P41145)
Chain of Kappa-type opioid receptor (P41145 whole entry): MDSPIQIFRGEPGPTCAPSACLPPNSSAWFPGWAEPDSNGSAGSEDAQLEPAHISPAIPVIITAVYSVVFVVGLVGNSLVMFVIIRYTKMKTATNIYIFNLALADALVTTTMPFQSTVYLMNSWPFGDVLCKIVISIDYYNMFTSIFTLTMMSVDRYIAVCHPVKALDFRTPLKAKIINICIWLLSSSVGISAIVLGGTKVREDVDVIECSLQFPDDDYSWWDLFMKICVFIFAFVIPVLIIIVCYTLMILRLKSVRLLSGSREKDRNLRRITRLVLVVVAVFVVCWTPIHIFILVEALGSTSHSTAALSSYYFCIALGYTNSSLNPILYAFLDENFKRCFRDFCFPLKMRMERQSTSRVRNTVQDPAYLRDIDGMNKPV

Mu-type opioid receptor [8] = biological target: T3, Mu-type opioid receptor; experiment: biochemical; type: functional
Progesterone receptor [9] = biological target: T5, Progesterone receptor (Homo sapiens, UniProt P06401); type: functional
T5 sequence (P06401 whole entry): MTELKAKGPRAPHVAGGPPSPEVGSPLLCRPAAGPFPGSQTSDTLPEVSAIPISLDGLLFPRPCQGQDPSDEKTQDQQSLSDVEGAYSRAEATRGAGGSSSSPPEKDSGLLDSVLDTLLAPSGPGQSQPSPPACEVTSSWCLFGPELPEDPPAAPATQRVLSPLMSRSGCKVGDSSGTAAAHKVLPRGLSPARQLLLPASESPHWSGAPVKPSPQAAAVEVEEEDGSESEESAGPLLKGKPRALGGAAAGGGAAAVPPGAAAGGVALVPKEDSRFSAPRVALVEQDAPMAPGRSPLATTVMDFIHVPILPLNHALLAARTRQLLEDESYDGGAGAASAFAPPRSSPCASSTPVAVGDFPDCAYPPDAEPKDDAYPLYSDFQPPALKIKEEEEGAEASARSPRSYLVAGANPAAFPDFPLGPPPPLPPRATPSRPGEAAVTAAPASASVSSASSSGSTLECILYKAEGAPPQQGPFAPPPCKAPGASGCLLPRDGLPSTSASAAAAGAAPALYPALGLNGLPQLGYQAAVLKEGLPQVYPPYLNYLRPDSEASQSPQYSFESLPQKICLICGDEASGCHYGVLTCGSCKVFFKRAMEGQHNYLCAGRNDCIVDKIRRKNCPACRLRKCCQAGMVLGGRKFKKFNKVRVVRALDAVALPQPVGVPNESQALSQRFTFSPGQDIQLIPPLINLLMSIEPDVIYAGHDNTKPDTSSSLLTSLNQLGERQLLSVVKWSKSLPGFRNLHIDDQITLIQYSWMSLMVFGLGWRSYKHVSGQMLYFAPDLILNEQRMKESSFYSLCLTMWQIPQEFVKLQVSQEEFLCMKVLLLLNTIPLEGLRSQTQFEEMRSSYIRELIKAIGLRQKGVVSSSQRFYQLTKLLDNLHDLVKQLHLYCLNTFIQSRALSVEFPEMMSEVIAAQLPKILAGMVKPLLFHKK

Progesterone receptor [10] = biological target: T5, Progesterone receptor; type: functional; remark: listed apart in the source
Further: assay procedure not described here.

SMILES	AC50 [1]	AC50 [2]	AC50 (Estrogen receptor)	AC50 (Mu-type opioid receptor [3])	AC50 [4]	AC50 [5]	AC50 [6]	AC50 [7]	AC50 (Mu-type opioid receptor [8])	AC50 (Progesterone receptor [9])	AC50 (Progesterone receptor [10])
Cc1cc2c(cc1CC(=O)c1sccc1S(=O)(=O)Nc1onc(C)c1Cl)OCO2 [SITAXENTAN]	> 30 µM	> 30 µM	> 30 µM	–	–	–	–	–	–	–	–
CN(C)CCCN1c2ccccc2CCc2ccc(Cl)cc21 [CLOMIPRAMINE]	3.63 µM	–	–	> 10 µM	1.4 µM	–	–	–	–	–	–
NS(=O)(=O)c1cc2c(cc1Cl)NCNS2(=O)=O [HYDROCHLOROTHIAZIDE]	–	–	–	> 10 µM	–	> 10 µM	> 10 µM	> 10 µM	–	–	–
NC1=NC(=O)C(c2ccccc2)O1 (stereo not drawn) [PEMOLINE]	–	–	–	> 30 µM	–	> 10 µM	> 10 µM	> 10 µM	> 30 µM	–	–
CCc1nn(CCCN2CCN(c3cccc(Cl)c3)CC2)c(=O)n1CCOc1ccccc1 [NEFAZODONE]	–	–	–	3.8 µM	–	> 10 µM	> 10 µM	5.46 µM	7.6 µM	–	–
O=C(O)c1cc(-c2ccc(F)cc2F)ccc1O [DIFLUNISAL]	–	–	–	> 30 µM	–	> 10 µM	> 10 µM	> 10 µM	> 30 µM	> 10 µM	> 10 µM
C[C@@H]1O[C@@H]1P(=O)(O)O [FOSFOMYCIN]	–	–	–	> 30 µM	–	> 10 µM	> 10 µM	> 10 µM	–	> 30 µM	> 30 µM
OCc1cc([C@@H](O)CNCCCCCCOCCOCc2c(Cl)cccc2Cl)ccc1O [VILANTEROL]	–	–	–	> 30 µM	–	–	–	–	–	> 30 µM	> 30 µM
CC(C)NCC(O)COc1ccc(COCCOC(C)C)cc1 (stereo not drawn) [BISOPROLOL]	–	–	–	> 10 µM	–	> 10 µM	–	> 10 µM	> 30 µM	–	–
CC(N)Cc1ccccc1 (stereo not drawn) [AMPHETAMINE]	–	–	–	–	> 30 µM	> 10 µM	–	> 10 µM	–	> 30 µM	> 30 µM
C#C[C@]1(O)CC[C@H]2[C@@H]3CCc4cc(O)ccc4[C@H]3CC[C@@]21C [ETHINYL ESTRADIOL]	> 30 µM	> 30 µM	–	> 30 µM	–	> 10 µM	> 10 µM	> 10 µM	–	–	–
CC(C)(C(=O)c1cccnc1)c1cccnc1 [METYRAPONE]	–	–	–	> 30 µM	–	> 10 µM	> 10 µM	> 10 µM	–	> 10 µM	> 10 µM
COC(=O)N[C@H](C(=O)N1CCC[C@H]1c1nc(-c2ccc(-c3ccc(-c4c[nH]c([C@@H]5CCCN5C(=O)[C@@H](NC(=O)OC)C(C)C)n4)cc3)cc2)c[nH]1)C(C)C	–	–	–	–	> 30 µM	> 30 µM	> 30 µM	4.1 µM	> 30 µM	> 30 µM	–
CCCS(=O)(=O)Nc1ccc(F)c(C(=O)c2c[nH]c3ncc(-c4ccc(Cl)cc4)cc23)c1F [VEMURAFENIB]	–	–	–	–	> 30 µM	> 30 µM	> 30 µM	> 30 µM	> 30 µM	23 µM	–
COC(=O)C1=C(C)NC(C)=C(C(=O)OCC(C)C)C1c1ccccc1[N+](=O)[O-] (stereo not drawn) [NISOLDIPINE]	–	–	–	9.4 µM	11 µM	> 10 µM	> 10 µM	> 10 µM	> 30 µM	> 30 µM	4.9 µM
NC[C@H]1O[C@H](O[C@H]2[C@H](O)[C@@H](O[C@H]3O[C@H](CO)[C@@H](O)[C@H](N)[C@H]3O)[C@H](N)C[C@@H]2N)[C@H](O)[C@@H](O)[C@@H]1O [KANAMYCIN]	–	–	–	> 30 µM	> 30 µM	> 10 µM	> 10 µM	> 30 µM	> 30 µM	> 10 µM	> 10 µM
C[C@H]1C[C@@H]2[C@H]([C@@H](O)C[C@@]3(C)[C@H]2CC[C@]3(O)C(=O)CO)[C@@]2(C)C=CC(=O)C=C12 [METHYLPREDNISOLONE]	–	–	–	> 30 µM	–	> 10 µM	> 10 µM	> 10 µM	> 30 µM	1.3 µM	–
CNC(=O)c1cc(Oc2ccc(NC(=O)Nc3ccc(Cl)c(C(F)(F)F)c3)cc2)ccn1 [SORAFENIB]	–	–	–	> 30 µM	15 µM	> 30 µM	> 30 µM	23 µM	> 30 µM	> 30 µM	> 30 µM
COC(=O)N[C@H](C(=O)N[C@@H](Cc1ccccc1)[C@@H](O)CN(Cc1ccc(-c2ccccn2)cc1)NC(=O)[C@@H](NC(=O)OC)C(C)(C)C)C(C)(C)C [ATAZANAVIR]	–	–	–	> 30 µM	–	> 10 µM	> 10 µM	1.06 µM	–	> 30 µM	> 30 µM
Cc1ccc(C(=O)c2cc(O)c(O)c([N+](=O)[O-])c2)cc1 [TOLCAPONE]	–	–	–	> 30 µM	–	> 10 µM	> 10 µM	> 10 µM	–	> 30 µM	1.09 µM
COc1ccc2c(c1)C(=O)N(CCc1ccc(S(=O)(=O)NC(=O)NC3CCCCC3)cc1)C(=O)C2(C)C [GLIQUIDONE]	–	–	–	–	> 30 µM	> 30 µM	> 30 µM	> 30 µM	> 30 µM	> 30 µM	> 30 µM
CC(C(=O)O)c1ccc(C(=O)c2cccs2)cc1 (stereo not drawn) [SUPROFEN]	–	–	–	> 30 µM	–	> 10 µM	> 10 µM	> 10 µM	–	> 10 µM	> 10 µM
CN1C(=O)CC(C)(c2ccccc2)C1=O (stereo not drawn) [METHSUXIMIDE]	–	–	–	> 30 µM	–	> 10 µM	> 10 µM	> 10 µM	> 30 µM	> 10 µM	> 10 µM
NC[C@H]1CC[C@H](C(=O)O)CC1 [TRANEXAMIC ACID]	–	–	–	> 30 µM	–	> 10 µM	> 10 µM	> 10 µM	> 30 µM	> 10 µM	> 10 µM
